In patent US20190055517A1, “Cell Line of M2c Macrophage and Its Applications” (National Pingtung University of Science and Technology, priority 2017, published 2019):

Tests used:
[1] = tested on: murine M2 macrophage; experiment: Macrophage phenotype by flow cytometry (CD86, CD206) after drug-induced differentiation; assay type: cell-based; conditions: conditions of chart 2, p<0.05, FIG. 3
Method: Use PBS containing 0.5% BSA to flush out bone marrow cells from murine (C57BL/6J, 8-20 weeks, Taiwan National Laboratory Animal Center) femur, then use Ficoll-Hypaque (GE healthcare, SWEDEN) to isolate monocytes.
Then, incubate 2×10^6 monocytes in 50 ng/ml M-CSF contained RPMI 1640 (10% FCS) medium under 37° c., 5% CO2 for seven days to induce M2 macrophage polarization. On the eighth day, collect 2×10^5 M2 macrophage and incubate them in RPMI 1640 (10% FCS) medium with Baicalin (50 μM, Tokyo Chemical Industry, JAPAN) for 24 hours. Baicalin will induce M2 macrophage to differentiate into M2C macrophage.
(§1) Embodiment 1 is prepared by the steps described above, isolate monocytes from murine bone marrow and use M-CSF to induce differentiation of M2 macrophage, and then use baicalin to induce M2C macrophage polarization. In comparison 1, incubate murine M2 macrophage in RPMI 1640 (10% FCS) containing LPS (lipopolysaccharide, 1 μg/ml, Sigma-Aldrich) for 2 hours. In comparison 2, incubate murine M2 macrophage in medium containing IL-4 ([…] Guidance System, Cambridge, UK) for 24 hours. The control group of M2 macrophage is incubated in RPMI 1640 (10% FCS) without any drugs. The conditions are shown below in chart 2.
After induced differentiation is complete, use flow cytometry to analyse the macrophage phenotype, in the meantime, also use real time PCR (qPCR) to observe mRNA expression level of each gene.
(§2) FIG. 2˜4 show results of macrophage phenotypes analysed by flow cytometry.

[2] = tested on: murine M2 macrophage; experiment: Macrophage cell morphology under microscope; assay type: cell-based; conditions: versus M-CSF control and comparison 2, FIG. 4
Method: as §1, §2

[3] = tested on: M1 and M2 macrophage derived from Raw264.7 cell line; experiment: mRNA expression of VEGF family, VEGF receptor and PD-L1 by RT-qPCR in Raw264.7 derived macrophages; assay type: cell-based, murine
Method: In this example, experiment was performed to observe if baicalin can induce expression of VEGF family and PD-L1 in M1 and M2 macrophage derived from Raw264.7 cell line (ATCC, USA). M1 macrophage obtained from treating Raw264.7 macrophage with LPS (1 μg/ml, Sigma-Aldrich) for 2 hours, and M0 macrophage (control group) cultured in simple RPMI 1640 (10% FCS) medium, are respectively cultured in RPMI 1640 (10% FCS) medium with either Baicalin (50 μM, Tokyo Chemical Industry, Japan) or […] (10 ng/ml, Cell Guidance System, Cambridge, UK). Collect the cells after 24/48/72 hours of cell culturing. Then observe the mRNA expression level of VEGF family, VEGF receptor and PD-L1 using reverse transcription-real time PCR (RT-qPCR).

[4] = tested on: Raw264.7 macrophages; experiment: VEGF-A protein in conditioned medium by ELISA; assay type: cell-based, murine; conditions: baicalin 50 μM, 48 hours, p<0.05, FIG. 13
Method: In this example, experiment was performed to further examine whether […] cells treated with baicalin will express VEGF-A protein. Add LPS (1 μg/ml), baicalin (50 μM) and IL-4 (10 ng/ml) respectively to medium culturing […]; Raw264.7 macrophages (ATCC, USA) and culture for 48 hours. Collect the conditioned medium and quantify VEGF-A protein by EUSA (Mouse VEGF EUSA Kit, Code: EK0541, BosterBio, CA, USA). Control group is cultured in the medium (90% DMEM+10% FBS) without any mentioned drugs. […] […] macrophage treated with baicalin can promote macrophage to secrete VEGF-A protein and the efficacy is greater than IL-4.

[5] = tested on: M2 cell line from murine bone marrow; experiment: Efferocytosis of CFSE-marked apoptotic cells by macrophages (flow cytometry PE-MERTK / CFSE); assay type: cell-based; conditions: apoptotic cells : M2 3:2, 2 hours, p<0.05, FIG. 21
Method: Efficacy evaluation of apoptotic cells efferocytosis in macrophages: method of the evaluation for effectiveness of apoptotic cells efferocytosis in M2 macrophage induced differentiated by different drugs were slightly modified based on previous studies (Li et al., Yancey et al., and Jehle et al; Liu st al and Lilis at al 2008). Detail steps are described below. Use 3 μM CFSE Cell Trace (Thermofisher, USA) to mark RAW264.7 macrophage cell line for 20 minutes under 37° C., then wash with PBS. Culture cells for 24 hours, then use the 1.5 mM H2O2 following the aforementioned steps to induce RAW264.7 macrophage cell to differentiate into apoptotic cells. […] Lastly, use flow cytometry (FACS BD ARIA II, BD Bioscience, USA) to examine fluorescence performance, if both PE-MERTK and CFSE appear positive, the cell will be identified as the M2C macrophages that efferocytosed the aforementioned apoptotic cells.
Results of fluorescence expression of stained apoptotic cells, macrophages and efferocytotic macrophages detected by flow cytometry are shown in FIG. 20. Apoptotic cells induced by H2O2 (1.5 mM) and express FITC fluorescence after FITC-CFSE staining are distributed in P4 region. Differentiated M2 macrophage expresses MERTK are detected by the expressed PE fluorescence after PE-MERTK staining, which is distributed in P5 region. […]

[6] = baicalin 50 μM, 24/48/72 hours, versus groups without baicalin, FIG. 10
[7] = versus IL-4 treated group, same treatment duration, p<0.05, FIG. 11

## O=C(O)[C@H]1O[C@@H](Oc2cc3oc(-c4ccccc4)cc(=O)c3c(O)c2O)[C@H](O)[C@@H](O)[C@@H]1O [Baicalin]
[1]
  percentage of cells expressing CD86 and CD206: lower than both comparison 1 and 2
[2]
  morphology of macrophages: ellipse instead of spindle shaped
[3]; baicalin 50 μM, 24/48/72 hours, versus M1, M2 macrophages without baicalin treatment (LPS, control), FIG. 9
  VEGF-A mRNA expression level: higher
[3]; [6]
  VEGFR-1 mRNA expression level: higher
  VEGFR-2 mRNA expression level: higher
[3]; [7]
  VEGF-A mRNA expression level: significantly higher
  VEGFR1 mRNA expression level: significantly higher
  VEGFR2 mRNA expression level: significantly higher
[3]; versus M1, M2 macrophages without baicalin treatment, p<0.05, FIG. 12
  PD-L1 mRNA expression level: higher
[4]
  VEGF-A protein detected in conditioned medium: higher than control group and other groups treated with other drugs
[5]; cells expressing CFSE
  mean fluorescence intensity of MERTK of single M2 macrophage: significantly higher than other drug treated groups and control group
[5]; cells expressing MERTK
  mean fluorescence intensity of CFSE of single M2 macrophage: significantly higher than other drug treated groups and control group
